Experimental findings from patent US10493057B2, “Acetogenin molecules having antiplatelet and/or antithrombic activities, and methods and compositions thereof” (INSTITUTO TECNOLOGICO Y DE ESTUDIOS SUPERIORES DE MONTERREY, priority 2015, dated 2019) are described below.

Like-named read-outs stand apart in the source and are kept apart here.

The test system of assay [1] is platelets (human platelet-rich plasma). The assay can be described thus: Platelet aggregation assay (turbidimetric, platelet-rich plasma) induced by collagen, ADP or arachidonic acid. Format: cell-based. An excerpt: Antiplatelet activity may be assessed using one or more in vitro (e.g., platelet aggregation) and/or in vivo (e.g., blood clotting time) assays. Antiplatelet activity may be assessed, for example, using a light transmittance aggregometry test based on the stimulation of platelet-platelet aggregation in platelet-rich plasma after stimulation with various agonists (e.g., ADP, α Arachidonic acid, collagen etc). This test has been the most widely used technique to monitor the effects of antiplatelet agents. Agonists and their concentration may be used to produce full aggregation. Under this condition, acetogenins may inhibit aggregation induced by any agonist; their half maximal inhibitory concentration (IC50) value may vary by the agonist used. Percent aggregation inhibition values may be calculated using the following equation: % Inhibition=(Maximal aggregation vehicle control−Maximal aggregation acetogenins)/Maximal aggregation vehicle control×100%. Under a dose-dependent antiplatelet activity, IC50 may represent the concentration of acetogenins required for 50% inhibition of stimulation of platelet aggregation. […]
To confirm the contribution of the isolated acetogenin compounds to antiplatelet activity, their individual activity was evaluated at different concentrations (0.15-15 mM). Aggregation was induced by different agonists that included collagen (5 μg mL−1), ADP (20 μM) and arachidonic acid (500 μM) in an approximation to explore the potential interference of acetogenins with the binding of a particular agonist to its cell surface receptor.
The platelet aggregation (induced by ADP, collagen and arachidonic acid) inhibitory activity of the purified molecules was evaluated was conducted in accordance with the Helsinki Declaration using human blood donated to the blood bank of Instituto Nacional de Cardiología Ignacio Chávez. Blood samples were taken from healthy volunteers who had not taken any medications for at least 2 weeks, or ingested any alcohol for at least 24 h prior to sample collection. Blood was collected by venipuncture into Vacutainer (BD Diagnostics, Plymouth, UK) tubes containing 3.8% sodium citrate as an anticoagulant (at a 9:1 ratio, v/v). Platelet-rich plasma (PRP) and platelet-poor plasma (PPP) were obtained as earlier reported by A. De la Peña, G. Baños, R. Izaguirre, J. J. Mandoki and J. M. Fernández, Comparative effect of synthetic aminoestrogens with estradiol on platelet aggregation, Steroids, 1993, 58(9), 407-409. The assays were carried out within 2 h after the blood had been drawn.
Evaluation of platelet aggregation was performed by turbidimetric measurements according to S. S. Falkenberg, I. Tarnow, A. Guzman, P. Molgaard and H. T. Simonsen, Mapuche herbal medicine inhibits blood platelet aggregation, Evid. Based Complement. Alternat. Med., 2012, 2012, 647620, with some modifications. PRP adjusted with PPP to a platelet count of 2.5×108 mL^−1 (215 μL) was pre-incubated at 37° C. for 10 min with the evaluated sample (10 μL) and at various concentrations.
Platelet aggregation was initiated by the addition of 25 μL of the platelet agonist. The final concentrations of agonists in the reaction mixture were 20 μM ADP, 500 μM arachidonic acid or 5 μg mL^−1 collagen, all obtained from Chrono-PAR. Corporation (Havertown, Pa., USA). Aggregation response was recorded for 10 min using a Chrono-log Model 700 Whole Blood/Optical Lumi-Aggregometer (Chrono-Log, Havertown, Pa., USA). Maximal aggregation (MA) observed for samples containing avocado extracts, at different degrees of purification, was compared to those of vehicle controls (DMSO 2 M) evaluated under the same experimental conditions. Percent aggregation inhibitions, for all samples, were calculated using the following equation: % Inhibition=(MA vehicle control−MA extract)/MA vehicle control×100%. […]

Assay [2] relates to Male adult CD1 mice. The assay can be described thus: Experimental thrombosis model test (surgical stasis of femoral vasculature). As to conditions: 25 mg kg−1 single i.p.; thrombosis induced after 24 h. Format: in vivo. From the text:
Antithrombic activity may be assessed using one or more in vivo (e.g., experimental thrombosis model) assays. For example, after thrombus induction, femoral segments may be removed, fixed, and stained. These segments may be then scored by a pathologist in a double blind manner. Quantitative measurement may be obtained by computerized plannimetry, reaching a quantitative morphological description of structures at the two-dimensional level. Image analysis may be performed using ImageJ software. Minimal occlusion (0.2%) may be observed in controls arteries and test specimens may display thrombus occlusion 40% of the vascular light.
All in vivo experiments were conducted in accordance with the Mexican National Protection Laws on Animal Protection and the General Health Law Related to Health Research (NOM-062-Z00-1999). All procedures were approved by an ethics committee. Male adult CD1 mice weighing 25-35 g were used (obtained from the Animal Care Unit from Facultad de Medicina, UNAM). […]
Additionally, an experimental thrombosis model test was performed by subjecting mice to an acute ischemic challenge. […] 4 μm thick sections were stained with Masson's trichrome and hematoxylin-eosin, and scored by a pathologist for the percentage of thrombus induction based on the occlusion of vascular light.

Assay [3] deals with Male adult CD1 mice. The assay can be described thus: Blood clotting time test in mice. Format: in vivo. On the procedure: All in vivo experiments were conducted in accordance with the Mexican National Protection Laws on Animal Protection and the General Health Law Related to Health Research (NOM-062-Z00-1999). All procedures were approved by an ethics committee. Male adult CD1 mice weighing 25-35 g were used (obtained from the Animal Care Unit from Facultad de Medicina, UNAM).
Animals were distributed among groups according to a balanced design based on body weight (3 animals per group in each experiment). Room temperature was kept constant (21-24° C.), and with light-dark cycles of 12 h. Food and water were given ad libitum. Persenone-A was dissolved in DMSO (vehicle) and administered intraperitoneally (i.p.). Control animals only received the vehicle (1.66 mL kg−1).
In a blood clotting time test groups of animals received a single i.p. administration of Persenone A (1, 10 or 100 mg kg^−1 of body weight, respectively) or vehicle. Blood clotting time was measured 24 h after administration, as described in R. Jaimez, A. Cooney, K. Jackson, A. E. Lemus, C. […] Time was counted from the instant that blood first made contact with the glass capillary tube and until the blood ceased to flow. […]
The data shown in FIG. 4 is representative of at least three independent experiments. Results were expressed as means±SEM. […]

Setting [4] is: Homo sapiens, Platelet, ADP 20 μM, read-out: Half-maximal inhibition concentration (IC50), ADP-induced platelet aggregation.
[5] abbreviates: Homo sapiens, Platelet, Arachidonic acid 500 μM, read-out: Half-maximal inhibition concentration (IC50), arachidonic acid-induced platelet aggregation.
Setting [6] is: Homo sapiens, Platelet, Collagen 5 μg mL−1, read-out: Half-maximal inhibition concentration (IC50), collagen-induced platelet aggregation.

Regarding `C=CCCCCCCCCCCC[C@H](O)C[C@H](O)COC(C)=O` [Acetogenin 1, (2S,4S)-1-acetoxy-2,4-dihydroxy-n-heptadeca-16-ene], the IC50 in assay [1] (setting [4]) came out at 7.29 ± 1.21 mM; in assay [1] (setting [5]), 13.4 ± 1.26 mM; in assay [1] (setting [6]) it was 8.18 mM. Also, the “inhibitory concentration, fold higher than Persenone-C” value in assay [1] (all three agonists (collagen, ADP, arachidonic acid)) was over 1.5 fold.

For `C=C/C=C/CCCCCCCCCCCC(=O)CC(O)COC(C)=O` (stereo not shown) [Acetogenin 2, Persediene], the IC50 was over 15 mM in assay [1] (setting [4]), over 15 mM in assay [1] (setting [5]) and 12 ± 1.24 mM in assay [1] (setting [6]). In assay [1] (collagen-induced), the “inhibition of collagen-induced aggregation (in words)” value is on record as “inhibited collagen-induced aggregation”.

Consider `CC/C=C/CCCCCCCCC/C=C/C(=O)CC(O)COC(C)=O` (stereo not shown) [Acetogenin 3, Persenone-C], for which the IC50 in assay [1] (Collagen 5 μg mL−1, read-out: Half-maximal inhibition concentration (IC50), collagen-induced platelet aggregation) worked out at 5.23 ± 1.19 mM; in assay [1] (setting [4]), 5.22 ± 1.19 mM; in assay [1] (setting [5]), 7.4 ± 1.2 mM; in assay [1] (setting [6]), 3.42 ± 1.56 mM.

Take `CCCCC/C=C\C/C=C\CCCCC/C=C/C(=O)CC(O)COC(C)=O` (stereo not shown) [Acetogenin 4, Persenone-A]: the “decrease in luminal occlusion compared to the stasis group” value in the assay on Male adult CD1 mice [2] was 71%. Also, the “increase in blood clotting time” value with Male adult CD1 mice [3] (100 mg kg−1 single i.p., measured 24 h after administration, relative to vehicle) is reported as 2 fold. In addition, the “EC50 of blood clotting time” value in the assay with Male adult CD1 mice [3] (single i.p., 24 h after administration) was 24.8±1.7 mg kg^−1 of body weight. Also, the IC50 in assay [1] (setting [4]) is 13.5 ± 1.41 mM; in assay [1] (setting [5]), over 15 mM; in assay [1] (setting [6]), 8.73 ± 1.25 mM. Further, in assay [1] (Homo sapiens, Platelet, 15 mM, arachidonic acid, read-out: inhibition of arachidonic acid-induced platelet aggregation at the highest concentration), the inhibition at 15000 µM is under 50%.

Consider `CCCCC/C=C\C/C=C\CCCCCCCC(=O)CC(O)COC(C)=O` (stereo not shown) [Acetogenin 6, Persin], for which the IC50 in assay [1] (setting [4]), in assay [1] (setting [5]) and in assay [1] (setting [6]) was over 15 mM each time. Moreover, the “inhibition of platelet aggregation (in words)” value in assay [1] (any of the evaluated concentrations (0.15-15 mM)) was “did not inhibit platelet aggregation”.

Regarding `CC(=O)Oc1ccccc1C(=O)O` [Aspirin, acetylysalicylic acid, reference compound], the IC50 in assay [1] (setting [4]) was found to be 3.65 ± 0.07 mM; in assay [1] (setting [5]), 0.07 ± 0.01 mM; in assay [1] (setting [6]) it was 0.38 ± 0.07 mM; in assay [1] (Homo sapiens, Platelet, arachidonic acid-induced, read-out: IC50, arachidonic acid-induced platelet aggregation (as printed in text)), 0.07 ± 0.01 mM. Further, the “IC50 for arachidonic acid-induced aggregation, fold lower than for ADP-induced aggregation” value in assay [1] (arachidonic acid vs ADP) stood at 50 fold.
